Source: article PMC12426930, “Antioxidant, Hypotensive, and Antidiabetic Breakthroughs: Bromelain Hydrolysis Unlocks Quinoa’s Peptide Potential - In Silico and In Vitro Approach” (Journal of Agricultural and Food Chemistry, 2025)
Several values for one entry are separate records, joined by “and”; a condition that tells them apart may be missing. Equal entries are not always repeated. Entries after “also recorded” stand apart in the source; their conditions may differ. Marks after values point to notes of the source that are not given here.

How the values were obtained:
[1] = test system: angiotensin I converting enzyme; test: ACE-I inhibitory activity (fluorometric kit CS0002); type: biochemical
Procedure: ACE-I inhibitory assay was determined by ACE-I activity assay kit (fluorometric, CS0002). This assay is based on the hydrolysis of angiotensin I by ACE to yield angiotensin II. Briefly, all reagents were diluted in the assay buffer, and a total of 50 μL of peptide sample, positive control (captopril PHR1307), and assay buffer (blank) were added to a 96-well black plate. The standard was added at 0, 0.1, 0.2, 0.3, 0.4, 0.5, 0.6, and 0.8 nmol and adjusted to a final volume of 100 μL. […] Finally, fluorescence (λex, 320 nm; λem, 405 nm) was measured in five cycles for 5 min. Linear regressions were determined to calculate the enzymatic activity for each sample per concentration. Thus, one unit was defined as the amount of enzyme that releases 1 nmol of fluorescent substrate in 1 min at 37 °C. Finally, the inhibition (%) of each peptide and positive control was determined using regression analysis of the corresponding dose–response curves.

ACE-I = conditions: pearl garlic peptides; ref Yudho-Sutopo et al. [121]; read-out: ACE-I inhibition IC50; cited from earlier work
Source text: Yudho-Sutopo et al. reported the ACE-I inhibitory activity of four synthetic peptides from pearl garlic (DHSTAVW, KLAKVF, KLSTAASF, and KETPEAHVF). […] According to Yudho-Sutopo et al., the hydrophobic amino acid in the C-terminal and amino acids with a positively charged side-chain amino group, like in DHSTAVW, are determinants in the inhibition of ACE-I. Furthermore, a study by Zheng et al. reported an ACE-I inhibitory peptide – RGQVIYVL – from Chenopo ...

LOX = conditions: cited from earlier work; for anti-LOX activity (inhibition): 1 mg/mL, velvet antler blood peptides, ref Ding et al. [119]
Source text: Ding et al. evaluated eight peptides from velvet antler blood (LFP, FPH, EHF, VGYP, FSAL, LSQKFPK, HHGGEFTPV, and LKECCDKPV) for anti-LOX activity. […] Karas et al. reported six LOX-inhibitory peptides from millet grain (RLARAGLAQ, YGNPVGGVGH, EQGFLPGP ...

[2] = test system: porcine pancreatic α-amylase (PPA); test: α-Amylase inhibition; type: biochemical; conditions: CNPG3 substrate, 405 nm, 37 °C, mean ± SD, n = 9
Procedure: α-Amylase inhibition activity was performed using the 3,5-dinitrosalicylic acid (DNS) assay according to Zulfiqar et al. […] Then, 50 μL of substrate (2-chloro-4-nitro-[…] (CNPG3) (2 mM)) was added per well. Finally, absorbance was recorded at 405 nm (SPARK-10M, TECAN, Switzerland) at 37 °C for 10 min in 1-min intervals. The percentage of enzyme inhibition was calculated in relation to 100% enzymatic activity in the negative control (phosphate-buffered saline (PBS) buffer, enzyme, and substrate).

[3] = test system: rat intestinal acetone α-glucosidase; test: α-Glucosidase inhibition; type: biochemical; conditions: 2 mM maltose, pH 6.9, 37 °C, mean ± SD, n = 9
Procedure: α-Glucosidase inhibition assay was measured following the method of Vilcacundo et al., with slightly modifications. First, 100 μL of sample ([…]), positive control (1 mM acarbose), and/or negative control (Milli-Q-water), were added to 50 μL of rat intestinal acetone α-glucosidase (1 U/mL in 0.1 M, maleate buffer pH 6.9), and the mixture was incubated at 37 °C for 5 min. Then, 50 μL of substrate (2 mM maltose) was added into each tube, which was performed in a Thermomixer (37 °C, 1000 rpm, for 30 min). Finally, the reaction was stopped at 100 °C for 5 min. The glucose concentration in the reaction was measured using GOPOD (glucose oxidase/peroxidase) from Megazyme, with absorbance measured at 560 nm (Gen5 software, version 1.1, BioTek Instruments, Winooski, VT, USA). The percentage of inhibition was calculated relative to the non-inhibited control (negative control).

human DPP-IV = test: DPP-IV inhibitory activity; type: biochemical; conditions: H-Gly-Pro-pNA, 37 °C, mean ± SD, n = 9
Procedure: Dipeptidyl peptidase-IV (DPP-IV) inhibitory activity was measured following the method by Vilcacundo et al., with slightly modifications. […] For the negative control 70 μL of Tris Buffer was added. Finally, 100 μL of substrate (H-Gly-Pro-pNA, 100 mM) was added to all wells. The reaction was performed at 37 °C in the microplate reader (BioTek Instruments, Winooski, VT, USA), and the reaction was read at 405 nm for 30 min, with reading intervals of 2 min. Finally, data were plotted and fitted to a logarithmic regression to obtain dose–response curves.

[4] = Oxygen radical absorbance capacity (ORAC) assay; conditions: AAPH, fluorescein, 37 °C, 150 min
Procedure: Oxygen radical absorbance capacity (ORAC) assay was performed following the method of Carvalho-Oliveira et al. Briefly, 30 μL of peptide (different concentrations 50–1000 μM) or standard (Trolox at 0–160 μM) were placed in a black 96-well plate. The reaction mixture comprised 180 μL of fluorescein (116.9 nM) and 90 μL of 2,2’-azobis(2-amidinopropane) dihydrochloride (AAPH) (40 mM). Finally, the fluorescence was recorded every 2 min for 150 min at excitation and emission wavelengths of 485 and 520 nm, respectively. All reactions were performed at 37 °C. The results were expressed as μmol Trolox equivalent (TE)/μmol of peptide. Quantification and interpretation of the data were done by Gen5 software, version 1.1 (BioTek Instruments, Winooski, VT, USA).

[5] = Trolox equivalent antioxidant capacity (TEAC, ABTS radical cation); conditions: 734 nm, 6 min, mean ± SD, n = 9
Procedure: The Trolox equivalent antioxidant capacity (TEAC) analysis was performed as described by Sanchez-Velazquez et al. In order to produce ABTS (2,2’-azino-bis(3-ethylbenzthiazoline-6-sulfonic acid) radical cation (ABTS^ ●+ ), ABTS (7 mM) were mixed with potassium persulfate (2.45 mM) in the dark at room temperature (RT 18–21 °C) for 16 h. […] Finally, the reaction was measured at 0 and 6 min at 734 nm (SPARK-10M, TECAN, Switzerland). The percentage of inhibition was calculated as follows: %TEACinhibition=Abs sample0min−Abs sample6min/Abs sample0min−(Abs blank0min−Abs blank6min/Abs blank0min)×100

Fe^2+ chelation assay = conditions: 125 μM; ferrozine, pH 4.9, 37 °C, 10 min; mean ± SD, n = 9
Procedure: Fe^2+ chelation assay was measured according to Sanchez-Velazquez et al. with slightly modifications. 25 μL of sample (synthetic peptides, […]) or positive control (EDTA, 0.1 μg/μL) was added to 225 μL of buffer (sodium acetate, 100 mM, pH 4.9), then 15 μL of iron solution (0.1%, w/v) and 9 μL of ferrozine (40 mM) were added to start the reaction. For the blank well, 250 μL of buffer was added to the iron solution and ferrozine. The reaction was incubated 10 min at 37 °C and then read at 562 nm (SPARK-10M, TECAN, Switzerland). Fe^2+ chelating activity was calculated as described previously for copper.

[6] = test system: 15-LOX enzyme (soybean lipoxygenase); test: Lipoxygenase inhibitor screening assay (LOX); type: biochemical; conditions: 31.25 μM; linoleic acid 1 mM, RT, 490 nm
Procedure: Lipoxygenase inhibitory activity assay (LOX) was determined following the manufacturer’s instructions (#760700). Thus, peptide concentrations (31.25–125 μM) were prepared with the assay buffer and tested in triplicate. First, 10 μL of the peptides at each concentration was mixed with 90 μL of 15-LOX enzyme (soybean lipoxygenase) in a 96-well plate. Then, three wells each contained assay buffer as blank (without enzyme), assay buffer as vehicle (with enzyme), and 15-LOX as positive control. Afterward, 10 μL of linoleic acid (1 mM) (substrate) was added to all wells and shaken for 10 min at RT. Finally, 100 μL of chromogen was added to all wells, and the plate was sealed and shaken for an additional 5 min at RT. The final reaction was measured at 490 nm, and the percentage of inhibition was calculated as. %inhibition=[1−Correctedvaluesofpeptide/Correctedvaluesofvehicle]×100

[7] = 125 μM, fluorometric kit, 37 °C, mean ± SD, n = 9
[8] = 250 μM, fluorometric kit, 37 °C, mean ± SD, n = 9
[9] = 500 μM, fluorometric kit, 37 °C, mean ± SD, n = 9

## C[C@H](CS)C(=O)N1CCC[C@H]1C(=O)O [commercial ACE-I inhibitor, reference compound]
[1]; 50 µM
  ACE-I inhibition, reference inhibitor: 80.1%

## DHSTAVW [synthetic peptide from pearl garlic, Yudho-Sutopo et al]
ACE-I
  IC50: 2.8 µM

## GQLGEHGGAGMG
LOX; millet grain peptides, ref Karas et al. [120]
  LOX inhibition: 50%

## HHGGEFTPV [peptide from velvet antler blood, Ding et al]
LOX
  anti-LOX activity (inhibition): ≤ 12%

## KETPEAHVF [synthetic peptide from pearl garlic, Yudho-Sutopo et al]
ACE-I
  IC50: 455 µM

## KLAKVF [synthetic peptide from pearl garlic, Yudho-Sutopo et al]
ACE-I
  IC50: 77.2 µM

## KLSTAASF [synthetic peptide from pearl garlic, Yudho-Sutopo et al]
ACE-I
  IC50: 172 µM

## LKECCDKPV [peptide from velvet antler blood, Ding et al]
LOX
  anti-LOX activity (inhibition): ≤ 12%

## LSQKFPK [peptide from velvet antler blood, Ding et al]
LOX
  anti-LOX activity (inhibition): ≤ 12%

## NIYQIS [quinoa 11S globulin peptide, custom-synthesized by GenScript, purity 95%]
[2]; 300 μM
  α-amylase inhibition: ND (no inhibitory effect was observed at the given concentration)
[2]; 400 μM
  α-amylase inhibition: ND (no inhibitory effect was observed at the given concentration)
[2]; 500 μM
  α-amylase inhibition: did not show significant α-amylase inhibition; also recorded: ND (no inhibitory effect was observed at the given concentration)
[3]; 300 μM
  α-glucosidase inhibition: 7.72 ± 0.95^c %
[3]; 400 μM
  inhibition: 10.4 ± 0.93%
[3]; 500 μM
  α-glucosidase inhibition: 11.93 ± 0.92^b %
Human DPP-IV; 125 μM
  DPP-IV inhibition: ND (no inhibitory effect was observed at the given concentration)
Human DPP-IV; 250 μM
  DPP-IV inhibition: 12.22 ± 0.50^b %
Human DPP-IV; 500 μM
  DPP-IV inhibition: 16.36 ± 0.70^a %
[4]
  ORAC: 0.75 μmol TE/μmol peptide
[4]; mean ± SD, n = 9
  ORAC: 0.75 μM TE/μM Peptide and 0.75 ± 0.02^a μM TE/μM Peptide
[5]; 125 μM
  TEAC inhibition (ABTS^●+ inhibition): 7.87 ± 0.10%
[5]; 250 μM
  TEAC inhibition (ABTS^●+ inhibition): 7.39 ± 0.19%
[5]; 500 μM
  TEAC inhibition (ABTS^●+ inhibition): 8.19 ± 0.38%
Fe^2+ chelation assay
  Fe^2+ chelating activity: 9.04 ± 0.96%
[6]
  LOX inhibition: 16.20%
[1]; [7]
  ACE-I inhibition: 17.20 ± 0.28^d %
[1]; [8]
  ACE-I inhibition: 31.7 ± 2.40^b %
[1]; [9]
  ACE-I inhibition: 53.0 ± 1.41^a %

## VGYP [peptide from velvet antler blood, Ding et al]
LOX
  anti-LOX activity (inhibition): ≤ 12%

## YDDER [quinoa 11S globulin peptide, custom-synthesized by GenScript, purity 95%]
[2]; 300 μM
  α-amylase inhibition: 12.20 ± 1.67^c %
[2]; 400 μM
  α-amylase inhibition: 11.43 ± 2.04^c %
[2]; 500 μM
  α-amylase inhibition: 6.66 ± 0.38^d %
[3]; 300 μM
  α-glucosidase inhibition: 8.48 ± 0.94^c %
[3]; 400 μM
  α-glucosidase inhibition: 8.33 ± 0.94^c %
[3]; 500 μM
  α-glucosidase inhibition: 14.86 ± 0.89^a %
Human DPP-IV; 125 μM
  DPP-IV inhibition: ND (no inhibitory effect was observed at the given concentration)
Human DPP-IV; 250 μM
  DPP-IV inhibition: ND (no inhibitory effect was observed at the given concentration)
Human DPP-IV; 500 μM
  DPP-IV inhibition: 3.44 ± 0.50^d %
[4]
  ORAC: 0.24 μmol TE/μmol peptide
[4]; mean ± SD, n = 9
  ORAC: 0.24 ± 0.01^b μM TE/μM Peptide
[5]; 250 μM
  TEAC inhibition (ABTS^●+ inhibition): 7.45 ± 0.19%
[5]; 500 μM
  TEAC inhibition (ABTS^●+ inhibition): 8.7 ± 0.50%
Fe^2+ chelation assay
  Fe^2+ chelating activity: 8.8 ± 1.0%
[6]
  LOX inhibition: 22.64%
[1]; [7]
  inhibition: 21.1 ± 0.19%
[1]; [8]
  ACE-I inhibition: 24.1 ± 0.18^c %
[1]; [9]
  ACE-I inhibition: 24.3 ± 0.15^c %
